This note sets out measurements from patent publication US8198273B2, “Compounds and methods for kinase modulation, and indications therefor” (Plexxikon Inc., priority 2009, dated 2012).

In one data set the target is B-Raf V600E (Homo sapiens, UniProt P15056, V600E). Briefly: B-Raf V600E biochemical kinase inhibition (AlphaScreen, biotin-MEK1 substrate). The note with it: 100 μM ATP. In a few lines:
(§1)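 Serial 1:3 dilutions of compound (0.1 mM DMSO stock, eight points) were added first, then ATP to start the reaction at 100 μM final.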

The target in another data set is CYP2C19 (Homo sapiens, UniProt P33261). Briefly: CYP2C19 inhibition (fluorescent substrate). In kind it is in vitro ADME. Particulars: CYP2C19, CEC substrate; read-out: Cyp IC50 2C19. The method in brief:
(§2)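 First, 100 mM DMSO stocks are diluted into acetonitrile, then twofold through co-factor mix for 10 points. Next, mixtures are preincubated 10 min at 37 °C.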

The next data set deals with c-Raf-1 (Homo sapiens, UniProt P04049). Briefly: c-Raf-1 biochemical kinase inhibition (AlphaScreen, biotin-MEK1 substrate). The note with it: 100 μM ATP. In a few lines:
as §1

The target of the next data set is CYP2C9 (Homo sapiens, UniProt P11712). Briefly: CYP2C9 inhibition (fluorescent substrate). It counts as in vitro ADME. The note with it: CYP2C9, MFC substrate; read-out: Cyp IC50 2C9. The method in brief:
as §2

Another data set relates to Colo205 xenograft. Put plainly: Colo205 xenograft mouse model, tumor growth inhibition. It counts as in vivo. Particulars: COLO 205, 336 h, female nu/nu mice, 10 mg/kg daily for fourteen days. How it is done:
Tumor growth is monitored to approximately 100 mg size, and mice are distributed to treatment groups such that the mean tumor burden within a group is within 10% of the overall mean tumor burden. […] Mice are observed daily, with tumor burden and body weights measured twice a week. Animals with tumor burden above 1500-2000 mg and any animals in moribund condition are euthanized. The average tumor growth of vehicle control group mice is compared to the average tumor growth of the test compound mice. Percent tumor growth inhibition is calculated as 100×[(tumor growth control-tumor growth test compound)/tumor growth control].

Data set [1] in a line: Relative solubility by turbidity in aqueous buffers of varying pH. In kind it is physicochemical. The note with it: for turbidity threshold (L, M, H) 7.4: HEPES pH 7.4; for turbidity threshold (L, M, H) 4.5: SIF pH 4.5; for turbidity threshold (L, M, H) 6.8: SIF pH 6.8; for turbidity threshold (L, M, H) 1.4: buffer pH 1.4 (SGF). The method in brief:
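Turbidity endpoint: concentration where optical density at 490, 535 and 650 nm exceeds 0.01, three-wavelength average used. Buffers at pH 1.5, 4.5, 6.8 and 7.4; DMSO serial dilutions of 25 mM stock spiked 1 μL into 99 μL buffer. Low <31.3, moderate 31.3–250, high >250 μM.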

A further data set deals with T1, A-Raf (Homo sapiens, UniProt P10398).
T1 sequence (P10398 1-606): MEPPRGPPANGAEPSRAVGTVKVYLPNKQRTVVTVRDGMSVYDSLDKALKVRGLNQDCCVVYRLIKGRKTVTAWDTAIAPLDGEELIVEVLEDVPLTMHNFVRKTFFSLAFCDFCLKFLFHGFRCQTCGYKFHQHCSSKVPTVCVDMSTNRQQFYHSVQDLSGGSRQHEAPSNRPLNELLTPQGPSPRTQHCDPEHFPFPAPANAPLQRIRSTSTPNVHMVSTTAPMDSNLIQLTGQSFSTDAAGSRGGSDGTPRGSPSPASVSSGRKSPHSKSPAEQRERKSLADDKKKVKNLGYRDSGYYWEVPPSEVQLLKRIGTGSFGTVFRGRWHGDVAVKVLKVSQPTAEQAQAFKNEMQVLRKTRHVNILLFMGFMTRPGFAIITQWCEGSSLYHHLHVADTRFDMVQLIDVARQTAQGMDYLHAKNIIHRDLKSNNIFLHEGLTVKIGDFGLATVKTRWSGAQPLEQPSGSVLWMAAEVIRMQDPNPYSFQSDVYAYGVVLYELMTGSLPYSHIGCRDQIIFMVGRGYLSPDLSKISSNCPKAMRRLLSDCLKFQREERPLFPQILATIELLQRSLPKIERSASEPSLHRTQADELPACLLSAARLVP
Briefly: A-Raf biochemical kinase inhibition (AlphaScreen, biotin-MEK1 substrate). Particulars: 100 μM ATP. In a few lines:
as §1

Chain of c-Raf-1 (P04049 whole entry): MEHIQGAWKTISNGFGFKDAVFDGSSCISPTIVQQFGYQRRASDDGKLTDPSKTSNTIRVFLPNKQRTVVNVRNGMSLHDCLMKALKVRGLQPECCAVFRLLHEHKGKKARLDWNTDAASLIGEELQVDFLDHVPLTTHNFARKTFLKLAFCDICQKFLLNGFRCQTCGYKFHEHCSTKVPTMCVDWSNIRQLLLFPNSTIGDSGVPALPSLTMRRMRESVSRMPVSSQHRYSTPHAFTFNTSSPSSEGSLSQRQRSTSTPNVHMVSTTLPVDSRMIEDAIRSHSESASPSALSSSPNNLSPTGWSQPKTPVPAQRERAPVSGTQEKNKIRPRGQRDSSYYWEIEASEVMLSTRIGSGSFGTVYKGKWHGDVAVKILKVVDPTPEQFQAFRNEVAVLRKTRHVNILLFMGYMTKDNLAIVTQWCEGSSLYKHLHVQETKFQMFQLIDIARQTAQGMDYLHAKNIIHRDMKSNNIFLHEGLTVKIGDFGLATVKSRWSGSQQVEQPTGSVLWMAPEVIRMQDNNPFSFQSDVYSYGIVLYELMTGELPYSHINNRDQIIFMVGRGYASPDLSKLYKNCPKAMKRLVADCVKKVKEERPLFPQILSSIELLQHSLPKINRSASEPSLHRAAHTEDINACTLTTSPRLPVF
Chain of B-Raf V600E (P15056 whole entry V600E): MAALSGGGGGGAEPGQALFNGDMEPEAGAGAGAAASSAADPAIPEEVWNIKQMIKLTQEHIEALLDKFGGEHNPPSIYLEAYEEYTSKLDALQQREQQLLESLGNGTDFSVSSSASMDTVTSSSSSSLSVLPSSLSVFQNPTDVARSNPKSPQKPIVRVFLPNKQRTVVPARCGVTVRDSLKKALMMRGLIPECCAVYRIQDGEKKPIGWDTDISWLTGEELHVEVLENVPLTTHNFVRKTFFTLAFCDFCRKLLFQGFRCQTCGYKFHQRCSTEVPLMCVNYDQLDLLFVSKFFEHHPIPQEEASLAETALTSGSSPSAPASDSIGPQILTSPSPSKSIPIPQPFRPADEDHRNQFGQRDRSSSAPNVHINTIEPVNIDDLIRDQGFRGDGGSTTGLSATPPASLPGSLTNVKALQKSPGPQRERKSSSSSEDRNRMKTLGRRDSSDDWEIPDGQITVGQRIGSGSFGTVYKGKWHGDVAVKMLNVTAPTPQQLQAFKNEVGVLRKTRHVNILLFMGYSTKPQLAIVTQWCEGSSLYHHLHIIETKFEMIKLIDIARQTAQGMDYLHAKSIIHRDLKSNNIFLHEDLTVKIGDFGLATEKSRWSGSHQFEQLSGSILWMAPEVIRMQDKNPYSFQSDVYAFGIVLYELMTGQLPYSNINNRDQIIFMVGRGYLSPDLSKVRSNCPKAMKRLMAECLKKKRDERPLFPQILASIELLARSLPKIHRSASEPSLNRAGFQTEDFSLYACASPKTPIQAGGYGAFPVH
Chain of CYP2C19 (P33261 whole entry): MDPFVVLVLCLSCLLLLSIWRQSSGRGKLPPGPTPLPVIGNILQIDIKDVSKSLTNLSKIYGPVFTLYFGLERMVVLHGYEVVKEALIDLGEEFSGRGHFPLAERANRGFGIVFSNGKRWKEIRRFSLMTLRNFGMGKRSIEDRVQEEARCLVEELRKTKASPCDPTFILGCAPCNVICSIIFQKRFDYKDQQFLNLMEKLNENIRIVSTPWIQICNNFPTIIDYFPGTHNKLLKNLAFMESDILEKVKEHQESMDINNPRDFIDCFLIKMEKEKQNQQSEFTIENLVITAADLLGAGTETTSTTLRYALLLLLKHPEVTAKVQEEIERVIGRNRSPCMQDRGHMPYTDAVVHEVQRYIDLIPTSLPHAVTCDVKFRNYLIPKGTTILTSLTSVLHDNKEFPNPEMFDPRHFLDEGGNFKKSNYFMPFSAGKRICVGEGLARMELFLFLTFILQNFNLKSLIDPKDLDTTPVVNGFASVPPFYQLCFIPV
Chain of CYP2C9 (P11712 whole entry): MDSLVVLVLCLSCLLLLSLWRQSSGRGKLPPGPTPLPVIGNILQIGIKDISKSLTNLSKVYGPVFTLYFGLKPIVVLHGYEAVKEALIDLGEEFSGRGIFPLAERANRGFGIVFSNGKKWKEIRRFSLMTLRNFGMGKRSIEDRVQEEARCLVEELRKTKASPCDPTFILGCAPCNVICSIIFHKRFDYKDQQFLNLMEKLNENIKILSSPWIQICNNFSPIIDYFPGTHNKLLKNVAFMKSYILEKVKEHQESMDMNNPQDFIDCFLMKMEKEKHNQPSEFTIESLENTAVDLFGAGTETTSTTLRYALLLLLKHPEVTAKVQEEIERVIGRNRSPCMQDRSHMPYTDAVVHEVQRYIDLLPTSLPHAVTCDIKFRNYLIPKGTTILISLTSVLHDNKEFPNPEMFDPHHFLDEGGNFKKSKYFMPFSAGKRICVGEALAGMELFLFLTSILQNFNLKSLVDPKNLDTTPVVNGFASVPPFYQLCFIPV

For orientation: IC50 means the midpoint of a concentration-inhibition curve. In general, inhibition in vivo refers to how much of the control response was suppressed. For the compound `COc1ccnc2[nH]cc(C(=O)c3c(F)ccc(NS(=O)(=O)c4ccccc4F)c3F)c12` [P-2021, N-[2,4-Difluoro-3-(4-methoxy-1H-pyrrolo[2,3-b]pyridine-3-carbonyl)-phenyl]-2-fluoro-benzenesulfonamide], at B-Raf V600E, the IC50 was under 0.1 µM. In addition, at CYP2C19, the IC50 is over 10 µM. For the same compound, on c-Raf-1, the IC50 was under 0.01 µM. The IC50 at CYP2C9 is over 10 µM. The compound also gave an inhibition in vivo at 10 mg/kg in the data set with Colo205 xenograft of 35%. Besides, in data set [1], the “turbidity threshold (L, M, H) 7.4” value is “M (moderate solubility if the threshold concentration is 31.3 μM to 250 μM)”; the “turbidity threshold (L, M, H) 4.5” value is “M (moderate solubility if the threshold concentration is 31.3 μM to 250 μM)”; the “turbidity threshold (L, M, H) 6.8” value was “M (moderate solubility if the threshold concentration is 31.3 μM to 250 μM)”; the “turbidity threshold (L, M, H) 1.4” value is given as “H (high solubility if the threshold concentration is >250 μM)”.
Consider `CCCS(=O)(=O)Nc1ccc(F)c(C(=O)c2c[nH]c3ncc(-c4cncnc4)cc23)c1F` [P-2162, Propane-1-sulfonic acid [2,4-difluoro-3-(5-pyrimidin-5-yl-1H-pyrrolo[2,3-b]pyridine-3-carbonyl)-phenyl]-amide], for which the half-maximal inhibitory concentration (IC50) against B-Raf V600E is under 0.01 µM; at CYP2C19, over 10 µM; against c-Raf-1, under 0.01 µM; at CYP2C9, 5 to 10 µM. In addition, the inhibition in vivo at 10 mg/kg in the data set with Colo205 xenograft was determined as 17%. Further, the “turbidity threshold (L, M, H) 7.4” value in data set [1] is recorded as “M (moderate solubility if the threshold concentration is 31.3 μM to 250 μM)”. Moreover, in data set [1], the “turbidity threshold (L, M, H) 4.5” value is reported as “M (moderate solubility if the threshold concentration is 31.3 μM to 250 μM)”. Besides, the “turbidity threshold (L, M, H) 6.8” value in data set [1] was “M (moderate solubility if the threshold concentration is 31.3 μM to 250 μM)”. In data set [1], the “turbidity threshold (L, M, H) 1.4” value is recorded as “M (moderate solubility if the threshold concentration is 31.3 μM to 250 μM)”.
For `CCCS(=O)(=O)Nc1ccc(F)c(C(=O)c2c[nH]c3ncc(-c4ccc(OCCCN(C)C)nc4)cc23)c1F` [P-2178, Propane-1-sulfonic acid (3-{5-[6-(3-dimethylamino-propoxy)-pyridin-3-yl]-1H-pyrrolo[2,3-b]pyridine-3-carbonyl}-2,4-difluoro-phenyl)-amide], the IC50 was under 0.01 µM against B-Raf V600E, 5 to 10 µM on CYP2C19, under 0.01 µM on c-Raf-1 and 5 to 10 µM on CYP2C9. This compound also came in with an inhibition in vivo at 10 mg/kg with Colo205 xenograft of 0%. In addition, the “turbidity threshold (L, M, H) 7.4” value in data set [1] is given as “L (low solubility if the threshold concentration is <31.3 04)”. In addition, in data set [1], the “turbidity threshold (L, M, H) 4.5” value is recorded as “M (moderate solubility if the threshold concentration is 31.3 μM to 250 μM)”. Also, the “turbidity threshold (L, M, H) 6.8” value in data set [1] is on record as “L (low solubility if the threshold concentration is <31.3 04)”. Moreover, in data set [1], the “turbidity threshold (L, M, H) 1.4” value was “H (high solubility if the threshold concentration is >250 μM)”.
Consider `CCCS(=O)(=O)Nc1ccc(F)c(C(=O)c2c[nH]c3ncc(-c4ccc(OCCN5CCCC5)nc4)cc23)c1F` [P-2233, Propane-1-sulfonic acid (2,4-difluoro-3-{5-[6-(2-pyrrolidin-1-yl-ethoxy)-pyridin-3-yl]-1H-pyrrolo[2,3-b]pyridine-3-carbonyl}-phenyl)-amide], for which the IC50 against A-Raf was under 0.01 µM; at B-Raf V600E, under 0.01 µM; on CYP2C19, 5 to 10 µM; against c-Raf-1, under 0.01 µM; at CYP2C9, over 10 µM. Further, the “turbidity threshold (L, M, H) 7.4” value in data set [1] is on record as “M (moderate solubility if the threshold concentration is 31.3 μM to 250 μM)”. In addition, the “turbidity threshold (L, M, H) 4.5” value in data set [1] is on record as “M (moderate solubility if the threshold concentration is 31.3 μM to 250 μM)”. In data set [1], the “turbidity threshold (L, M, H) 6.8” value is listed as “L (low solubility if the threshold concentration is <31.3 04)”. In addition, in data set [1], the “turbidity threshold (L, M, H) 1.4” value was “L (low solubility if the threshold concentration is <31.3 04)”.
Regarding `CCCS(=O)(=O)Nc1ccc(F)c(C(=O)c2c[nH]c3ncc(-c4ccc(OCCCN5CCCC5)nc4)cc23)c1F` [P-2235, Propane-1-sulfonic acid (2,4-difluoro-3-{5-[6-(3-pyrrolidin-1-yl-propoxy)-pyridin-3-yl]-1H-pyrrolo[2,3-b]pyridine-3-carbonyl}-phenyl)-amide], the IC50 on A-Raf was under 0.01 µM; on B-Raf V600E, under 0.01 µM; at CYP2C19 it was under 5 µM; on c-Raf-1, under 0.01 µM; on CYP2C9 it was over 10 µM. In data set [1], the “turbidity threshold (L, M, H) 7.4” value is reported as “L (low solubility if the threshold concentration is <31.3 04)”. In addition, in data set [1], the “turbidity threshold (L, M, H) 4.5” value is “M (moderate solubility if the threshold concentration is 31.3 μM to 250 μM)”. For the same compound, the “turbidity threshold (L, M, H) 6.8” value in data set [1] is recorded as “L (low solubility if the threshold concentration is <31.3 04)”. The “turbidity threshold (L, M, H) 1.4” value in data set [1] is “L (low solubility if the threshold concentration is <31.3 04)”.
As for `CCCS(=O)(=O)Nc1ccc(F)c(C(=O)c2c[nH]c3ncc(-c4ccc(OCCCN5CCOCC5)nc4)cc23)c1F` [P-2236, Propane-1-sulfonic acid (2,4-difluoro-3-{5-[6-(3-morpholin-4-yl-propoxy)-pyridin-3-yl]-1H-pyrrolo[2,3-b]pyridine-3-carbonyl}-phenyl)-amide], the IC50 at A-Raf was under 0.01 µM; at B-Raf V600E it was under 0.01 µM; at CYP2C19, under 5 µM; on c-Raf-1, under 0.01 µM; on CYP2C9, under 5 µM. The “turbidity threshold (L, M, H) 7.4” value in data set [1] is recorded as “L (low solubility if the threshold concentration is <31.3 04)”. Besides, the “turbidity threshold (L, M, H) 4.5” value in data set [1] was “M (moderate solubility if the threshold concentration is 31.3 μM to 250 μM)”. In addition, the “turbidity threshold (L, M, H) 6.8” value in data set [1] is recorded as “L (low solubility if the threshold concentration is <31.3 04)”. Also, the “turbidity threshold (L, M, H) 1.4” value in data set [1] is “M (moderate solubility if the threshold concentration is 31.3 μM to 250 μM)”.
For the compound `CCCS(=O)(=O)Nc1cccc(C(=O)c2c[nH]c3ncc(-c4cnc(OC)nc4)cc23)c1F` [P-2407, Propane-1-sulfonic acid {2-fluoro-3-[5-(2-methoxy-pyrimidin-5-yl)-1H-pyrrolo[2,3-b]pyridine-3-carbonyl]-phenyl}-amide], the IC50 on A-Raf is under 0.01 µM; against B-Raf V600E, under 0.01 µM; at CYP2C19 it was under 5 µM; on c-Raf-1 it was under 0.01 µM; on CYP2C9 it was over 10 µM. For the same compound, the “turbidity threshold (L, M, H) 7.4” value in data set [1] is recorded as “L (low solubility if the threshold concentration is <31.3 04)”. In addition, the “turbidity threshold (L, M, H) 4.5” value in data set [1] is given as “L (low solubility if the threshold concentration is <31.3 04)”. The “turbidity threshold (L, M, H) 6.8” value in data set [1] was “L (low solubility if the threshold concentration is <31.3 04)”. Further, in data set [1], the “turbidity threshold (L, M, H) 1.4” value was “L (low solubility if the threshold concentration is <31.3 04)”.
`CCCS(=O)(=O)Nc1cccc(C(=O)c2c[nH]c3ncc(-c4cnc(N(C)C)nc4)cc23)c1F` [P-2408, Propane-1-sulfonic acid {3-[5-(2-dimethylamino-pyrimidin-5-yl)-1H-pyrrolo[2,3-b]pyridine-3-carbonyl]-2-fluoro-phenyl}-amide]: the IC50 was under 0.01 µM against A-Raf; under 0.01 µM on B-Raf V600E; over 10 µM at CYP2C19; under 0.1 µM at c-Raf-1; 5 to 10 µM on CYP2C9. In data set [1], the “turbidity threshold (L, M, H) 7.4” value was “L (low solubility if the threshold concentration is <31.3 04)”. In addition, the “turbidity threshold (L, M, H) 4.5” value in data set [1] is reported as “L (low solubility if the threshold concentration is <31.3 04)”. Besides, the “turbidity threshold (L, M, H) 6.8” value in data set [1] is “L (low solubility if the threshold concentration is <31.3 04)”. Besides, the “turbidity threshold (L, M, H) 1.4” value in data set [1] is reported as “L (low solubility if the threshold concentration is <31.3 04)”.
